“Also recorded” adds a separate entry of the source. Marks after values point to notes of the source that are not given here.
How the values were obtained:
[1] = tested on: vascular endothelial cell proliferation; conditions: endothelial versus tumor cell proliferation; cited from earlier work
[2] = tested on: Tumor cell lines (Lewis lung carcinoma or MDA-MB-231); test: Wash-out in vitro anti-proliferation studies (cell counts) with ENMD-1198; assay type: cell-based
Method: Tumor cell lines (Lewis lung carcinoma or MDA-MB-231) were treated in vitro for varying times with varying concentrations of ENMD-1198. Over the course of a three-day study, on each study day the cells were exposed to ENMD-1198 for varying times (1, 2, 4, 6, or 24 hours) at the indicated concentrations. The medium was then removed and replaced with medium without ENMD-1198 for the remainder of each 24-hour period. For the 24-hour exposure wells, the medium was changed every day to provide 72 hours continuous exposure. Anti-proliferative activity was determined by cell counts after the third day of treatment.

[3] = tested on: Lewis lung carcinoma; test: Lewis lung carcinoma experimental pulmonary metastasis model; assay type: in vivo, mice; conditions: for antitumor activity, T/C: 100 mg/kg/day
From the text: A pharmacodynamic paradigm relating 2ME2 pharmacokinetics to activity in vivo was developed. Dose-response relationships were established for 2ME2 following administration by (a) i.v. bolus administration, (b) oral gavage, (c) i.p. bolus injection, (d) i.p. dose fractionation, (e) continuous i.p. infusion, or (f) drinking water ad libitum in animal models, including an experimental pulmonary metastatic Lewis lung carcinoma model, primary tumor cell xenograft models, and a model of rheumatoid arthritis. Plasma 2ME2 concentration was temporally assessed by GC-MS or LC-MS/MS methodology, and pharmacokinetic parameters were defined at effective doses.
These studies assess the effect of route of administration on the anti-tumor activity of 2ME2 in an orthotopic model of murine lung cancer. Three days following the intravenous injection of Lewis lung carcinoma (“LLC”), groups of ten mice were treated with 2ME2 (200 mg/kg) once every 24 hours (q.d.) by either oral gavage (p.o.) or intraperitoneal (i.p.) injection.
FIG. 1, Panel B: 2.5×10^5 Lewis lung carcinoma cells in a volume of 0.2 ml were i.v. injected into the lateral tail vein of C57BL/6 male mice, 5-6 weeks of age (Jackson Labs). Treatment was initiated three days later by daily i.v. injection with 2ME2. Following the final day of therapy, mice were sacrificed, lungs removed, washed in phosphate buffered saline and weighed. Results are expressed as lung weight gain in treated versus control animals.
Dose-dependent inhibition of pulmonary metastases was observed following daily bolus administration of 2ME2. Fractionating a bolus q.d. injection (once every 24 hours, 2 mg/injection, 100 mg/kg/day) into four smaller, equal doses (q6hr, 0.5 mg/injection, 100 mg/kg/day) improved the antitumor activity of 2ME2 (T/C=0.30 and 0.05, respectively, p<0.05).
(§1) In further support of this paradigm, a significant inhibition of pulmonary metastases was obtained in tumor-bearing mice given 2ME2 by continuous infusion using Alzet pumps. Three days after injection of LLC cells, therapy was initiated i.p. with either vehicle control or with 2ME2 delivered through 7-day osmotic pumps (see FIG. 3A). The daily target levels of 2ME2 were calculated assuming an average pump rate of […]. To achieve a target level of 200 mg/kg/day, the concentration of 2ME2 in the osmotic pumps was prepared at 150 mg/mL. Asterisks indicate groups statistically different from vehicle control (α=0.05) as shown in A. To determine the PK profile of 2ME2 using this delivery scheme, non-tumor bearing male C57BL/6 mice (6 weeks of age) were treated i.p. for up to 7 days with 2ME2 at 1.8 mg/day (˜100 mg/kg/day) using 7-day osmotic pumps. On days 2, 4, and 7, plasma samples were collected and plasma 2ME2 levels were determined as described above (see FIG. 3B).
In further support of this paradigm, a significant inhibition of pulmonary metastases was obtained in tumor-bearing mice given 2ME2 ad libitum access through their drinking water.

[4] = Plasma 2ME2 pharmacokinetics in non-tumor bearing C57BL/6 mice; assay type: in vivo; conditions: for Cmin / Tmax / T½ / Cmax / AUC0-24: i.p.
Method: On day 7, plasma samples were collected at selected time points, and plasma unconjugated 2ME2 levels were determined using LC-MS/MS methodology.
The data for 0.5 mg q.i.d. over the first six hours was used to model steady state levels over a 24 hr. time period as shown in FIG. 2. Pharmacokinetic parameters were determined by noncompartmental analysis using WinNonLin (Pharsight, Mountain View, Calif.).
as §1

[5] = tested on: LLC cell line; test: Wash-out in vitro proliferation study mimicking i.v. dosing; assay type: cell-based; conditions: 3microM 2ME2 for 2 hours, then medium alone
Method: FIG. 1, Panel C: We designed a “wash-out” in vitro proliferation study to mimic the exposure profile following i.v. dosing. The LLC cell line was plated in 96-well plates. After 24 hours, medium containing 3microM 2ME2 was added. Cells were exposed to 3microM 2ME2 for 2 hours. The medium was then removed and replaced with medium alone (medium: DMEM/F12 (1:1)+10% FBS+2mM L-Glutamine).

[6] = tested on: Tumor cell lines (Lewis lung carcinoma or MDA-MB-231); test: Wash-out in vitro anti-proliferation studies (BrdU) with 2ME2; assay type: cell-based
Method: To mimic the effect of cyclic levels of 2ME2 seen after daily dosing, and to compare this to the effects of continuous exposure to 2ME2, we carried out a series of wash-out in vitro anti-proliferation studies. Tumor cell lines (Lewis lung carcinoma or MDA-MB-231) were treated in vitro for varying times with varying concentrations of 2ME2. Over the course of a three-day study, on each study day the cells were exposed to 2ME2 for varying times (1, 2, 4, 6, or 24 hours) at the indicated concentrations. The medium was then removed and replaced with medium without 2ME2 for the remainder of each 24-hour period. Anti-proliferative activity was determined using a BrdU proliferation assay according to the manufacturer's instructions after the third day of treatment (see FIGS. 4A and 4B).

[7] = tested on: H2122 human NSCLC cells; test: Orthotopic H2122 NSCLC rat tumor model, survival; assay type: in vivo, rats
Method: Female athymic nude rats were injected i.t. with H2122 human NSCLC cells (1×10^6 in 0.2 mL). Seven days later, daily therapy was initiated p.o. with either vehicle control or 2ME2 at 10 or 60 or 300 mg/kg/d (n=15 rats/group). Animals were monitored closely for signs of morbidity and median survival times (MST) were determined. The study was terminated 50 days post tumor cell injection. In a separate cohort of non-tumor-bearing rats, plasma 2ME2 concentrations were determined at selected time points following a single oral gavage at 60 and 300 mg/kg. The PK data in Table 3 represents the range of 2ME2 concentrations in a 24 hour period. […] Using relevant PK data for any given formulation in a human or animal, it is possible for one skilled in the art to devise a dosing strategy—a combination of dose level and dose frequency—which will result in substantially continuous maintenance of the plasma level of the agent within the desired concentration range and so maximize the pharmacological activity, in this case anti-tumor activity.

[8] = tested on: collagen-induced arthritis; test: Rat collagen-induced arthritis model, radiographic scores; assay type: in vivo
From the text: Using relevant PK data for any given formulation in a human or animal, it is possible for one skilled in the art to devise a dosing strategy-a combination of dose level and dose frequency-which will result in substantially continuous maintenance of the plasma level of the agent within the desired concentration range and so maximize the pharmacological activity, in this case anti-arthritic or anti-inflammatory activity.

[9] = Plasma 2ME2 pharmacokinetics in non-tumor bearing C57BL/6 mice; assay type: in vivo; conditions: ad libitum drinking water, range over a 24 hr period
[10] = short-term incubation, even at high concentrations
[11] = 0.5 q.i.d., modelled from first six hours

Which “lower concentration for half-maximal inhibition of vascular endothelial cell proliferation than of tumor cell proliferation” value [1] does the source give for `CO[C@@H]1[C@H](OC(=O)NC(=O)CCl)CC[C@]2(CO2)[C@H]1[C@@]1(C)O[C@@H]1CC=C(C)C` [AGM-1470] here?
Its value is 4 logs.

Which results are given for `COc1cc2c(cc1C(N)=O)CC[C@@H]1[C@@H]2CC[C@]2(C)C=CC[C@@H]12` [ENMD-1198]?
inhibition of proliferation in vitro ([2]; continuous exposure (72 hours)): maximal inhibition of proliferation; anti-proliferative activity in vitro [2, 10]: does not result in much anti-proliferative activity

Which “inhibition of pulmonary metastases, T/C” value ([3]; 2ME2 200 mg/kg q.d. i.p. injection) does the source give for `COc1cc2c(cc1O)CC[C@@H]1[C@@H]2CC[C@]2(C)[C@@H](O)CC[C@@H]12` [Formulation 2ME2, 2-methoxyestradiol] here?
The value was 0.17.

And the “inhibition of pulmonary metastases, T/C” value ([3]; 2ME2 200 mg/kg q.d. oral gavage (p.o.))?
The value was 0.28.

What about the “inhibition of pulmonary metastases, T/C” value ([3]; 2ME2 ad libitum through drinking water) of the same compound?
The value was 0.16.

And the “antitumor activity, T/C” value ([3]; bolus q.d., 2 mg/injection)?
Its value is 0.30.

And the “growth inhibition of pulmonary metastases” value ([3]; continuous i.p. infusion, Alzet osmotic pumps, calculated dose ~100 mg/kg/day)?
Its value is 89%.

And the “anti-tumor activity in vivo (lung weight gain)” value ([3]; daily i.v. injection, transiently high levels)?
The value was “did not result in significant anti-tumor activity”.

What about the “antitumor activity, T/C” value ([3]; q6hr, 0.5 mg/injection) of the same compound?
The value was 0.05.

And the Cmin ([4]; 0.5 q.d., day 7)?
Its Cmin is 1.46 ng/mL.

And the Tmax ([4]; 0.5 q.d., day 7)?
The Tmax was 0.5 h.

And the T½ ([4]; 0.5 q.d., day 7)?
The T½ was 1.1 h.

And the Cmax ([4]; 0.5 q.d., day 7, plasma unconjugated 2ME2)?
Its Cmax is 325 ng/mL.

What about the AUC0-24 ([4]; 0.5 q.d., day 7, = AUC0-6*4) of the same compound?
Its AUC0-24 is 826.5^a ng/mL*hr.

And the AUC0-24 [4, 11]?
The AUC0-24 was 836.1 ng·h/mL.

What about the Cmin [4, 11] of the same compound?
Its Cmin is 1.50 ng/mL.

What about the Tmax [4, 11] of the same compound?
Its Tmax is 18.5 h.

What about the T½ [4, 11] of the same compound?
Its T½ is 1.1 h.

What about the Cmax ([4]; 0.5 q.i.d., steady state over 24 hr modelled from first six hours) of the same compound?
Its Cmax is 326.09 ng/mL.

And the AUC0-24 ([4]; 2.0 q.d., day 7)?
Its AUC0-24 is 13570.9 ng·h/mL.

What about the Cmax ([4]; 2.0 q.d., day 7) of the same compound?
The Cmax was 14070 ng/mL.

What about the Cmin ([4]; 2.0 q.d., day 7) of the same compound?
The Cmin was 0.86 ng/mL.

What about the Tmax ([4]; 2.0 q.d., day 7) of the same compound?
Its Tmax is 0.5 h.

What about the T½ ([4]; 2.0 q.d., day 7) of the same compound?
Its T½ is 3.2 h.

And the plasma exposure levels ([4]; continuous i.p. infusion, Alzet osmotic pumps, ~100 mg/kg/day)?
The plasma exposure levels was 9 to 25 ng/mL.

And the “anti-proliferative effect of transient exposure” value [5]?
The value was “poor anti-proliferative effect; also recorded: did not result in much anti-proliferative activity”.

And the “inhibition of proliferation in vitro” value ([6]; continuous exposure)?
Its value is “maximal inhibition of proliferation”.

What about the “anti-proliferative activity in vitro” value [6, 10] of the same compound?
The value was “does not result in much anti-proliferative activity”.

And the “% Survival on Day 50” value ([7]; 2ME2 10 mg/kg/d p.o.)?
Its value is 13%.

What about the “Median Survival Time” value ([7]; 2ME2 10 mg/kg/d p.o.) of the same compound?
The value was 18.5 days.

What about the “% Survival on Day 50” value ([7]; 2ME2 60 mg/mk/d p.o.) of the same compound?
The value was 20%.

And the “Median Survival Time” value ([7]; 2ME2 60 mg/mk/d p.o.)?
Its value is 26 days.

What about the “% Survival on Day 50” value ([7]; 2ME2 300 mg/kg/d p.o.) of the same compound?
The value was 47%.

What about the “Median Survival Time” value ([7]; 2ME2 300 mg/kg/d p.o.) of the same compound?
Its value is 43 days.

What about the “increase in median survival time as compared to diluent-treated controls” value ([7]; oral gavage, plasma 2ME2 3-17 ng/mL) of the same compound?
Its value is 2.5 fold.

And the “radiographic scores on day 28” value ([8]; 2ME2 50 mg/kg p.o. b.i.d)?
The value was 2.11±0.18.

And the “radiographic scores on day 28” value ([8]; 2ME2 60 mg/kg s.c. continuous infusion (Alzet pumps))?
Its value is 1.5±0.18.

What about the “radiographic scores on day 28” value ([8]; 2ME2 100 mg/kg p.o. q.d.) of the same compound?
The value was 2.88±0.21.

And the “plasma 2ME2 concentrations” value [9]?
Its value is 3 to 15 ng/mL.

Reference: patent publication US20060116360A1, “Method of administering anti-angiogenic agents and a method of treating disease using same” (priority 2004, published 2006)
